The record followed here is ChEMBL document CHEMBL1201862, “PubChem BioAssay data set” (2004).

By AC50 is commonly meant the midpoint of the concentration-response curve, whichever way the signal moves.

The target in series [1] is T1, Corticotropin-releasing factor receptor 2/Corticotropin-releasing factor-binding protein (Homo sapiens, UniProt P24387+Q13324).
T1 sequence (Q13324 whole entry): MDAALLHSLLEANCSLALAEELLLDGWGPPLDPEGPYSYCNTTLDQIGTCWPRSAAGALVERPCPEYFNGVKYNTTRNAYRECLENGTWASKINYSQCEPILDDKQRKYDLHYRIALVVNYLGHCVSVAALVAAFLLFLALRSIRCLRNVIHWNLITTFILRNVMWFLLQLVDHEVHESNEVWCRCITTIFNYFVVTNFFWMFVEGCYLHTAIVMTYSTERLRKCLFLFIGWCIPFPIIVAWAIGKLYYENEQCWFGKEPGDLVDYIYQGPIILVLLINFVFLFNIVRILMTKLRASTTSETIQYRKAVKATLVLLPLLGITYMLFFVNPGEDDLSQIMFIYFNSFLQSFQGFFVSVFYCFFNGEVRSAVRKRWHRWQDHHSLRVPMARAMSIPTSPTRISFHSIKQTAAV
T1 sequence (P24387 whole entry): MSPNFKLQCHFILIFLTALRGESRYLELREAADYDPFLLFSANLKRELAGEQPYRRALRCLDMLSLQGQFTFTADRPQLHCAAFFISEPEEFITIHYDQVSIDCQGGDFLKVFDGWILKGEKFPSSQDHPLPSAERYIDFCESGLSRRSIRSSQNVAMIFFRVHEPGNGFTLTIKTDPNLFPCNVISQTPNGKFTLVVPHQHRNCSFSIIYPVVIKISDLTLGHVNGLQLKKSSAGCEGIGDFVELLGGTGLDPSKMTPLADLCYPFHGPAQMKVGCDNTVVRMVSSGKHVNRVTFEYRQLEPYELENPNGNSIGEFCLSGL
As to the kind of experiment: activators of CRF receptor 2 with binding protein – uHTS hits, confirmation (AID 602473). The class given is functional. The following applies: read-out: EC50_Mean.

Series [2] can be described thus: Trypanosoma cruzi growth suppression in host cells – NIH3T3 host cells, beta-gal luminescence, confirmation (AID 2044).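 Note: intracellular parasites grown in NIH/3T3 mouse fibroblasts as host cells; luminescent beta-galactosidase reporter signal from transgenic T. cruzi replicating inside host cells; inhibitors lower the luminescence signal.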 It counts as functional, cell-based.
Series [3] in a line: NIH3T3 cell viability loss – ATP luminescence, mouse fibroblasts, counter-screen, dose response (AID 2010).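 Note: cells exposed to compound for about 90 hours before reading.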 It counts as functional, cell-based. Background: A counterscreen serves to expose hits that act by an unwanted route or on another target.
In a further series the target is T2, Cytochrome P450 1A2 (Homo sapiens, UniProt P05177).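 Note: PubChem cytochrome P450 panel assay, CYP1A2 panel member.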
T2 sequence (P05177 whole entry): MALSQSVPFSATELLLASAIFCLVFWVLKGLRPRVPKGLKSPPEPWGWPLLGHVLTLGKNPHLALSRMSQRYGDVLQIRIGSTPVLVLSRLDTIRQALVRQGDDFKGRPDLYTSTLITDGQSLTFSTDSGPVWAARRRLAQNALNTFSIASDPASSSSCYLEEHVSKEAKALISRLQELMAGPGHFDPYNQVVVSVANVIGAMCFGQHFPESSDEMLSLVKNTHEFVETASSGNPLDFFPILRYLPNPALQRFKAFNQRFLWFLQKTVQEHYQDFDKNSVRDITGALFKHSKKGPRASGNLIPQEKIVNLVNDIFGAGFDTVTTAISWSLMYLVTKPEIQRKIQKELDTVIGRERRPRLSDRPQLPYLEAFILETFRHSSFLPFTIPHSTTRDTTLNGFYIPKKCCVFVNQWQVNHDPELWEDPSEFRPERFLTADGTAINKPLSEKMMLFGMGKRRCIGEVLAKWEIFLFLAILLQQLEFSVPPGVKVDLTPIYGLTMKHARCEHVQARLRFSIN

Another series has as its target Cytochrome P450 2D6 (Homo sapiens, UniProt P10635).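 Note: CYP2D6 member of a cytochrome P450 panel assay.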
For another series, the target named is Cytochrome P450 2C19 (Homo sapiens, UniProt P33261). The series can be described thus: Cytochrome panel assay with activity outcomes. Panel member name: p450-cyp2c19 Compounds with AC50 equal or less than 10 uM are considered active. It counts as functional.
The target of a further series is Cytochrome P450 2C9 (Homo sapiens, UniProt P11712).
For series [4], the system named is Streptococcus sp. 'group A'. As to the kind of experiment: Streptococcus pyogenes SK(-)GAS viability under kanamycin – luminescence, BacTiterGlo, confirmation, counter-screen for streptokinase expression inhibitor project, dose response (AID 1900). The class given is functional, organism-based.
The test system of the next series is Streptococcus. The series can be described thus: GAS UMAA2166 growth inhibition – luminescence, BacTiterGlo, counter-screen for streptokinase expression inhibitor project, dose response (AID 1915).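 Note: potency for reduction of bacterial viability or growth.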 It counts as functional, organism-based.

Each structure is given as a SMILES string. Active and inactive are the calls of the source.

Chain of Cytochrome P450 2D6 (P10635 whole entry): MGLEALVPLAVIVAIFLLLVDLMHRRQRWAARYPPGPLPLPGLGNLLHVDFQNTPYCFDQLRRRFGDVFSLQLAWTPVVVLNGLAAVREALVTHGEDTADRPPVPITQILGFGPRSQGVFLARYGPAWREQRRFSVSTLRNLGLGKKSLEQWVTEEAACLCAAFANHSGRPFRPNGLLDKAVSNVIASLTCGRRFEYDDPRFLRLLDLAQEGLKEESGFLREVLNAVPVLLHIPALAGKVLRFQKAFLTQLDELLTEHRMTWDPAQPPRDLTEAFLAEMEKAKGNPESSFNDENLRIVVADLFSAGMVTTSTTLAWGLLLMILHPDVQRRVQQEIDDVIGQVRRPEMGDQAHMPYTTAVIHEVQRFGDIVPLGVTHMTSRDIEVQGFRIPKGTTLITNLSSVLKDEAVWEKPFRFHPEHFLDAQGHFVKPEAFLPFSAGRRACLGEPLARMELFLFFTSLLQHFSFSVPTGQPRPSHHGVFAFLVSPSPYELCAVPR
Chain of Cytochrome P450 2C9 (P11712 whole entry): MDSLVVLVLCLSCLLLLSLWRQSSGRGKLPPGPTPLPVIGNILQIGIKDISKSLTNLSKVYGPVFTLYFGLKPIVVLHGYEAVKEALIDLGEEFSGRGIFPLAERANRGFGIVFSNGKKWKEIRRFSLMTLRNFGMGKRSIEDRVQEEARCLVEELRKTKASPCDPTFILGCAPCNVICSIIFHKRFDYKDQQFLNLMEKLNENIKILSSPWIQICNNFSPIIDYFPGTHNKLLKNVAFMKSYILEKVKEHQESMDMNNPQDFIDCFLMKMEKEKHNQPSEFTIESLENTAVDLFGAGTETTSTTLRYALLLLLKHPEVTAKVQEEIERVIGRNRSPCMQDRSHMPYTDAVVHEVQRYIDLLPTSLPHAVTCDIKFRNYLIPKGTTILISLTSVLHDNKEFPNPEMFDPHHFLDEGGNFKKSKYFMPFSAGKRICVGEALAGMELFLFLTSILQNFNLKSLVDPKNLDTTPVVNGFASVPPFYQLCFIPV
Chain of Cytochrome P450 2C19 (P33261 whole entry): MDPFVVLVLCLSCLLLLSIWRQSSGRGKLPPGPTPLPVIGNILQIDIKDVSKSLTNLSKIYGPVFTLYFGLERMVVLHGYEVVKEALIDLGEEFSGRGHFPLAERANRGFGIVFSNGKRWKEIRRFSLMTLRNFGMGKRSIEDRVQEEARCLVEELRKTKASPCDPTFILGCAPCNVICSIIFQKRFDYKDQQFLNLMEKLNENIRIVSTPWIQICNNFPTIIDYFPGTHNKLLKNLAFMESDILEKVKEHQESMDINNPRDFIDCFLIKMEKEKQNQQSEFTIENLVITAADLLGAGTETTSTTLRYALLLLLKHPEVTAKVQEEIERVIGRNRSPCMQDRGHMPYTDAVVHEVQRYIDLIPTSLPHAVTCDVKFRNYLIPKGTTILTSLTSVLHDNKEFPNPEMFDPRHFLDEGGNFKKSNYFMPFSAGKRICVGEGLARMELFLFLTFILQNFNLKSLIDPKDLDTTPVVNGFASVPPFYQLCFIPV

Turning to `C=CCN1CCC2(C)c3cc(O)ccc3CC1C2C` (configuration not stated), the EC50 in [1] is > 53 µM (inactive). With `c1ccc(CN2CCCC3(CCCN(Cc4nc(COc5ccccc5)no4)C3)C2)cc1` (configuration not stated), the EC50 in series [2] is 0.285 µM (active); in [3], > 60 µM (not active). For `O=C(Nc1ccncc1)c1cc(S(=O)(=O)N2CCN(c3ccccc3)CC2)ccc1Cl` the same measures were 2.56 µM (active) and > 30 µM (not active). As for `O=C(CN1CCCC1)Nc1ccccc1Sc1ccccc1`, in series [1], the EC50 is > 53 µM (inactive). For the compound `O=C(COc1ccc2ccccc2c1)N1CCN(CC2CC3C=CC2C3)CC1` (configuration not stated), the AC50 at Cytochrome P450 1A2 was 22.4 µM (inconclusive).

As to `O=[N+]([O-])c1cc(Oc2cccnc2)cc([N+](=O)[O-])c1`, the EC50 in series [2] was 0.503 µM (active); in series [3], > 60 µM (not active). `N#Cc1ccc(CN2CCCC3(CCN(C(=O)c4cnccn4)CC3)C2)cc1`: the AC50 on Cytochrome P450 2D6 was 10 µM (inconclusive). Regarding `N#CCCn1c(=O)c(-c2ccc(F)cc2)nc2cnc(Oc3cccc(Cl)c3)nc21`, on Cytochrome P450 1A2, the AC50 was 0.501 µM (inconclusive). For the compound `CN(C)CCCNc1c2c(=O)n(C)c(=O)nc-2n(C)c2ccccc12`, the AC50 on Cytochrome P450 1A2 was 5.01 µM (inconclusive). With `C#CCOC(=O)Nc1ccc(=O)n(Cc2c(Cl)cccc2Cl)c1`, the values for the AC50 at Cytochrome P450 1A2 and on Cytochrome P450 2D6 were 12.6 µM (inconclusive) and 20 µM (inconclusive), respectively. With `COC(=O)[C@@]1(Cc2ccccc2)[C@H]2c3cc(C(=O)N4CCCC4)n(Cc4ccc(C(F)(F)F)nc4)c3C[C@H]2CN1C(=O)c1ccccc1`, the AC50 on Cytochrome P450 2D6 is 25.1 µM (inconclusive). Consider `COCc1c(C(=O)OCC(=O)N2c3ccccc3NC(=O)C2(C)C)oc2ccccc12`, for which the AC50 on Cytochrome P450 2C19 (read-out: AC50) is 20 µM (inconclusive); at Cytochrome P450 2C9 it was 31.6 µM (inconclusive). `O=C(CSc1nc2ccccc2s1)c1sc2sc3ccccc3[n+]2c1O`: at Cytochrome P450 2C9, the AC50 was 6.31 µM (inconclusive). For `CC(C)c1cc(-c2cc(C(=O)NCc3ccccc3)on2)nc(NCC2CC2)n1`, the EC50 in series [1] is 10.2 µM (active).

With `COc1c(Cl)cc(-c2noc(C)c2C(=O)NCc2ccc3c(c2)OCO3)cc1Cl`, the EC50 in series [1] is > 53 µM (inactive). Consider `Cc1cc(SCC(=O)c2ccc(Br)cc2)cc(C)[o+]1`, for which the values for the AC50 at Cytochrome P450 2C19 (read-out: AC50) and at Cytochrome P450 2D6 were 0.398 µM (inconclusive) and 3.16 µM (inconclusive), respectively.

For `Cc1ccnc(NC(=O)c2cc([N+](=O)[O-])cc([N+](=O)[O-])c2)c1`, the EC50 in series [2] is 0.193 µM (active); in [3], > 60 µM (not active). On to `CCN1C(=O)[C@@H]2[C@H]3C(=CC[C@@H]2C1=O)C1(OCCCO1)[C@H]1O[C@@H]1[C@H]3O`, for which the AC50 on Cytochrome P450 2C9 was 5.01 µM (inconclusive). `COc1ccccc1CN1CC[C@@]2(CCCN(S(=O)(=O)c3ccccc3)C2)C1`: the AC50 at Cytochrome P450 1A2 was 25.1 µM (inconclusive). Consider `Cc1ccc(SCc2n[nH]c3c2C(C(C)C)C(C#N)=C(N)O3)cc1` (configuration not stated), for which, at Cytochrome P450 2D6, the AC50 was 0.00316 µM (inconclusive). As to `Cc1cccc(-n2c(SCc3ccc([N+](=O)[O-])cc3)nnc2-c2c[nH]c3ccccc23)c1`, the EC50 was 1.77 µM (active) in series [2] and > 60 µM (not active) in [3]. For `COc1cccc(C(=O)NC2CCN(C(=O)N3c4ccccc4Sc4ccccc43)CC2)c1` the same measures were 2.23 µM (active) and > 60 µM (not active). On to `CCOC(=O)c1ccc(NC(=O)C2CCCO2)cc1` (configuration not stated), for which the AC50 is 14.1 µM (inconclusive) at Cytochrome P450 2C19 (read-out: AC50) and 0.0251 µM (inconclusive) on Cytochrome P450 2C9. Take `Cc1cc(C)c2nc3c(c([C@H](O)[C@@H]4CCCCN4)c2c1)CC/C3=C/c1ccc(Cl)cc1`: the AC50 at Cytochrome P450 2C9 was 1 µM (inconclusive). Take `Cc1ccc(C(=O)NNC(=O)CSc2nnc(-c3ccncc3)n2-c2ccc(C)cc2)cc1`: the AC50 on Cytochrome P450 2D6 is 12.6 µM (inconclusive). For the compound `O=S(=O)(c1ccccc1)c1cnn2c(C(F)(F)F)cc(-c3ccccc3)nc12`, the AC50 is 39.8 µM (inconclusive) on Cytochrome P450 2C19 (read-out: AC50) and 0.708 µM (inconclusive) on Cytochrome P450 2C9. For the compound `COc1ccc(C(=O)c2sc(Nc3cccc(OC)c3)c(C(=O)Nc3cccc(C)c3C)c2N)cc1`, the EC50 in series [1] is > 53 µM (inactive). Consider `CCCCN(C)CCCNC(=O)c1ccc2c(c1)N(CC)C(=O)c1ccccc1[S+]2[O-]` (configuration not stated), for which the EC50 in series [2] was 0.238 µM (active); in series [3], > 60 µM (not active). Regarding `Cc1cc(/C=C2\C(=N)N3N=C(S(C)(=O)=O)SC3=NC2=O)c(C)n1Cc1ccccc1`, the figures for the EC50 (in series [4]; in the series with Streptococcus) were 4.19 µM (active) and 21.1 µM (active), respectively.

With `COc1ccccc1/C=C/C(=O)OCCCN(C)C`, the EC50 was 0.794 µM (active) in [2] and > 30 µM (not active) in series [3]. With `NC(=NOC(=O)Cc1ccc(-c2ccccc2)cc1)c1cccc([N+](=O)[O-])c1`, the AC50 at Cytochrome P450 2C19 (read-out: AC50) was 2.82 µM (inconclusive); on Cytochrome P450 2C9 it was 10 µM (inconclusive). Consider `COc1ccc(NC(=O)OC(C)C)cc1`, for which the results for the AC50 on Cytochrome P450 2C19 (read-out: AC50), at Cytochrome P450 2C9 and at Cytochrome P450 2D6 were 28.2 µM (inconclusive), 14.1 µM (inconclusive) and 35.5 µM (inconclusive), respectively. Turning to `Cn1cc(-c2nc3cncnc3n(-c3ccccc3)c2=O)c2ccccc21`, the AC50 on Cytochrome P450 2C19 (read-out: AC50) was 39.8 µM (inconclusive).

For the compound `Cc1ccc2c(c1)N(CC(=O)NC1CCC(C)CC1)C(=O)CO2` (configuration not stated), at Cytochrome P450 2D6, the AC50 is 14.1 µM (inconclusive). As to `CCn1cnc2c(Nc3cccc(Cl)c3)nc(N[C@@H]3CCCC[C@H]3N)nc21`, the AC50 result on Cytochrome P450 2C19 is “inconclusive”.

As to `CCOC(=O)/C(=C\c1ccc([N+](=O)[O-])o1)NC(=O)c1ccccc1`, the EC50 in series [2] is 0.995 µM (active); in series [3] it was > 60 µM (not active). For `CC(OC(=O)c1ccc(S(=O)(=O)NCc2ccco2)cc1)C(=O)Nc1ccc(Cl)cn1` (configuration not stated), the EC50 in series [1] is 4.62 µM (active). `Oc1ccc(Oc2nc(N3CCOCC3)nc(N3CCOCC3)n2)nn1`: at Cytochrome P450 2C19 (read-out: AC50), the AC50 is 2.82 µM (inconclusive). With `O=C(NC(=S)Nc1ccc(CN2CCCCC2)cc1)c1cccc(OCc2ccccc2)c1`, the values for the EC50 in [2] and in series [3] were 1.09 µM (active) and > 60 µM (not active), respectively.

In the case of `O=C(CCS(=O)(=O)c1cccs1)N1CCN(c2ccc(F)cc2)CC1`, the AC50 is 31.6 µM (inconclusive) on Cytochrome P450 1A2 and 2.51 µM (inconclusive) on Cytochrome P450 2C9. With `COc1ccc(C(=O)OCC(=O)Nc2nnc(-c3ccccc3)o2)cc1`, the figures for the EC50 (in [4]; in the series with Streptococcus) were 5.97 µM (active) and 19.2 µM (active), respectively. `CCOc1ccc(NS(=O)(=O)c2ccc(C(=O)N3CCCC(C)C3)cc2)cc1` (configuration not stated): in [1], the EC50 is 11.1 µM (active). Same read-out and setting: the figure for `CCOC(=O)c1c(-c2ccccc2)csc1NC(=O)/C(C#N)=C\c1ccc(O)c(OC)c1` is 6.49 µM (active).

Consider `CC(=O)N1CCC(=O)N(C(C)C)c2ccccc21`, for which the AC50 on Cytochrome P450 2C9 was 0.0282 µM (inconclusive). Turning to `CCC(=O)NC(NC(=O)CC)C(Cl)Cl`, the AC50 on Cytochrome P450 2C9 was 20 µM (inconclusive). For `CCOc1ccc(N2C(=O)CS/C2=N/NC(=O)COc2ccc3ccccc3c2)cc1`, the AC50 on Cytochrome P450 2C9 is 31.6 µM (inconclusive); at Cytochrome P450 2D6, 39.8 µM (inconclusive).

`Cc1cccc([C@H](C)c2cnc[nH]2)c1C` [DEXMEDETOMIDINE]: the AC50 on Cytochrome P450 2D6 is 12.6 µM (inconclusive). `CC(=O)SC[C@@H](Cc1ccccc1)C(=O)NCC(=O)OCc1ccccc1` [ECADOTRIL]: the AC50 at Cytochrome P450 2C9 is 3.98 µM (inconclusive).

Regarding `O=C(O)CCC(=O)c1ccc(-c2ccccc2)cc1` [FENBUFEN], the AC50 on Cytochrome P450 1A2 was 12.6 µM (inconclusive). With `C[C@H](N[C@@H](C)COc1ccccc1)[C@H](O)c1ccc(O)cc1` [ISOXSUPRINE], the AC50 on Cytochrome P450 2C19 (read-out: AC50) was 15.8 µM (inconclusive).
